In patent publication US10324096B2, “Method of diagnosis, prognostic or treatment of neurodegenerative disease” (CENTRE NATIONAL DE LA RECHERCHE SCIENTIFIQUE, priority 2011, dated 2019):

How the values were obtained:
[1] = system: abnormally phosphorylated Tau in wild type differentiated SH-SY5Y cells; experiment: Suppression of GAG sulfation by chlorate in differentiated SH-SY5Y cells, pTau western blot; type: cell-based, human; settings: FIG. 8A, chlorate 50 mM
Experimental: Two cell types were used, (i) a wild type SH-SY5Y cells (mutation-independent model) in where abnormal phosphorylation is induced by oxidative stress and (ii) cells stably transfected with complete human tau protein having the mutation hTAU-P301L (mutation dependent model), characteristic of FTDP-17. As a consequence of the Tau mutation cells present high levels of abnormal phosphorylated Tau.
For the mutation dependent model cells were cultured as previously described (Schaeffer V et al., J Neurobiol 2006, July; 66(8):868-881). For the mutation independent model, human SH-SY5Y neuroblastoma cells were propagated in Dulbeco's modiced Eagle's medium (Gibco) with 5% fetal bovine serum and penicillin/streptomycin (5% CO2 and 95% air). For both models cells were plated at a density of 10^6 cells/cm^2 on 25 cm^2 dish and incubated under standard conditions for 24 h. […]
After harvesting, cells were and incubated in an ice bath for 5 min in a lysis buffer (50 mM Trus-HCl, 150 mM NaCl, 1% Triton X-100, 1 mM EDTA, 10 mM NaF, pH 8.0) containing 1 mM Na3VO4, and 0.1% protease inhibitor cocktail (Sigam). Lysates were centrifuged and proteins in the supernatants were quantified using the BCA protein assay kit (Pierce). […] Abnormally phosphorylated tau was detected by using anti-tau-pSer199 and anti-tau-pSer396 (Millipore) as described above. […] Results were expressed as a ratio of target protein to actine. […]

[2] = system: transgenic hTAU-P301L zebrafish embryos; experiment: Morpholino injection in transgenic hTAU-P301L zebrafish embryos: survival, anomalies; type: in vivo; settings: morpholino 0.5 mM
Source text: Transgenic hTAU-P301L embryos with morpholino-mediated knock-down of the 3-OST-2 coding gene with SEQ ID NO: 5 and the non-injected embryos were screened on the intensity of DsRed fluorescent protein at 24 hpf. With morpholino-mediated knock-down of the 3-OST-2 coding gene in the transgenic hTAU-P301L zebrafish model the level of hyperphosphorylation in Tau protein was investigated. First of all, the obtained zebrafish embryos from the crossing between WT line and transgenic zebrafish carrying the P301L mutation in Tau protein were injected with different morpholino concentrations, respectively 0.3 mM, 0.5 mM and 1 mM. The numbers of living embryos were assessed at 24 hours after injection and survival rates were determined. […] Thus, this concentration was chosen for further analyses (FIG. 12).
(§1) Morpholino oligonucleotides (MO) were designed to target the flanking region in the zebrafish 3-OST-2 gene in order to block the translation of the HS3ST2 mRNA: 5′-ATGGCATATAGGT TCCTGTCAAGCC . . . -3′. The morpholino antisense oligonucleotides were designed by Gene Tools (LLC One Summerton Way, Philomath, Oreg., USA). MO HS3ST2-ATG: 5′-[…]-3′.
The morpholinos were diluted to three different concentrations in Danieau buffer (58 mM NaCl, 0.7 mM KCl, 0.4 mM MgSO4, 0.6 mM Ca(NO3), 5 mM HEPES pH 7.6) and co-injected with 0.3 mg/mL dextran rhodamine (Molecular Probes, Eugene, Oreg., USA). […]

[3] = system: zebrafish 3-OST-2 gene / abnormally phosphorylated Tau protein; experiment: Morpholino knock-down of 3-OST-2 in hTAU-P301L zebrafish: hyperphosphorylated Tau; type: in vivo
Experimental: as §1
The morpholinos were diluted to three different concentrations in Danieau buffer (58 mM NaCl, 0.7 mM KCl, 0.4 mM MgSO4, 0.6 mM Ca(NO3), 5 mM HEPES pH 7.6) and co-injected with 0.3 mg/mL dextran rhodamine (Molecular Probes, Eugene, Oreg., USA). Transgenic zebrafish embryos at one-cell or two-cell stage were microinjected with approximately 2 nL of 0.5 mM, or 1 mM morpholino solution using a pressure microinjector and a Zeiss stereomicroscope (Zeiss). […]
The embryos resulting from crossing between AB line and transgenic zebrafish carrying the P301L mutated Tau gene were screened for the DsRed fluorescent protein at 24 hpf and at 48 hpf the vitellus was removed. […] Protein concentration was measured according to the Bradford method.
Levels of P-Tau181, characteristic of taupathy associated pathologies, were measured using a combination of monoclonal antibody HT7 (which recognizes amino acids 159-163 in normal Tau and P-Tau) and biotinylated monoclonal antibody AT270 (which recognizes P-Tau containing the phosphorylated threonine 181 residue). […]

human Tau protein = target: T1, human Tau protein (Homo sapiens, UniProt P10636); experiment: Heparin/glycosaminoglycans ELISA competition assay towards human Tau protein (immobilized heparin); type: binding; settings: FIG. 20
T1 construct: purchased R&D systems
T1 sequence (P10636 1-441 isoform P10636-8): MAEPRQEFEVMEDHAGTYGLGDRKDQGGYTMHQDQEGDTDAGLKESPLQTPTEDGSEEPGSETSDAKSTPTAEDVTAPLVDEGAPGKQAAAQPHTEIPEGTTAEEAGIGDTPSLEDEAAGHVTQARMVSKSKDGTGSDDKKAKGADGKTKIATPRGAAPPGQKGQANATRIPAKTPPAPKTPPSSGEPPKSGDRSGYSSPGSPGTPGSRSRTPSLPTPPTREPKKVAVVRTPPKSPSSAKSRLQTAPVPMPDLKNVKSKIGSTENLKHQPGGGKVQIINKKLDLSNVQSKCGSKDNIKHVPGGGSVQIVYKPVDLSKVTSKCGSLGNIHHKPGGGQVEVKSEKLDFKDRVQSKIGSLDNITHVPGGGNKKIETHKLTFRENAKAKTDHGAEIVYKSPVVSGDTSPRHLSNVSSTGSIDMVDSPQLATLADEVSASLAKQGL
Experimental: FIGS. 6A and 6B presents the higher capacity of GAGs extracted from hippocampus of AD to bind to human tau protein compared to GAGs from age-matched normal control brains. An ELISA test was used to compare the capacity of the different GAGs to bind to tau protein. The ELISA competing assay used immobilized heparin to bind au in the absence of competing GAGs. For the assay, GAGs (used from 0.1 to 1000 ng/mL) were added to the ELISA together with the tau protein (used at 100 ng/mL). After 1 h incubation at 4° C. plates were washed and remaining tau signal was recorded in the plate. X-axis: % Tau protein binding to total sulfated GAGs. EC50 stands for the GAG concentration necessary to inhibit 50% of the tau protein binding to immobilized heparin. Y-axis: Control (white histogram), AD (black histogram).
AD and control hippocampus extracted GAGs binding to human Tau protein (R&D systems) was evaluated by an ELISA based competition binding essay (Najjam et al., 1997). ELISA type 96 wells plates were coated with a 2 μg/mL BSA-heparin conjugate solution prepared as previously described (Najjam et al., 1997). After washing with PBS/0.05% Tween-20 (washing solution), wells were saturated with 3% BSA in PBS. […] Peroxidase activity was measured by the tetramethylbenzidine (TMB) detection kit (Pierce). […]

[4] = target: T2, recombinant human tau protein (441-amino acid isoform), GSK-3 (Homo sapiens, UniProt P10636); experiment: Phosphorylation of recombinant human Tau by GSK-3 in the presence of GAGs, heparin or oligosaccharides; type: biochemical; settings: 3-O-sulfated groups in heparin
T2 construct: purchased Millipore
T2 sequence (P10636 1-441 isoform P10636-8): as above
Experimental: Phosphorylation by glycogen synthase kinase 3 (GSK-3). Recombinant hTau41 (Millipore) was incubated for 0 to 24 h with […] of recombinant GSK3 (Millipore) in the presence or absence of 50 mg/ml of heparin, Arixtra®, or the heparin hexasaccharide non 3-O-sulfated. Phosphorylation assays (0.050 ml) were carried out at 30° C. and comprised 25 mM Tris-HCl, pH 7.4, 0.1 mM EGTA, 0.1 mM sodium orthovanadate, 2.5 mM PKI (a specific inhibitor of cyclic AMP-dependent protein kinase), protease inhibitors (0.5 mM phenylmethylsulfonyl fluoride, 5 mg/ml aprotinin, 5 mg/ml leupeptin,
and 0.5 mg/ml pepstatin), tau protein ([…]), 10 mM magnesium acetate, 2 mM [g-^32P]ATP (approximately 100 cpm/nmol) 5 units/ml recombinant reconstituted GSK3. Reactions were initiated with ATP and aliquots were removed at various times ranging from 10 min to 24 h and used for SDS-polyacrylamide gel electrophoresis and immunoblotting. Immunoblots were performed as described (Masato Hasegawa et al., J Bio Chem. (1997) 272 (52), pp. 33118-33124). Alternatively, incorporation of ^32P radioactivity was measured after adsorption to Whatman P-81 paper, as described. Heparin and extracted GAGs were included in the assays at 50 mg/ml.

For `[O-][Cl+2]([O-])O` [chlorate, sodium chlorate], the “levels of abnormally phosphorylated Tau epitopes S199, T231, S262, S396 (pTau/β actine)” value [1] was “Decreased levels of the abnormally phosphorylated Tau epitopes”.
“5′-GGCTTGACAGGAACCTATATGCCAT-3′ (all phosphorodiamidate morpholino (PMO)) [MO HS3ST2-ATG]” was tested, and the “major anomalies or deformities” value [2] was “did not give major anomalies or deformities”, the survival rate ([2]; 24 hours post-injection) was 67% and the “accumulation of abnormally phosphorylated Tau protein in spinal cord” value ([3]; FIG. 13, anti-PHF-tau antibody clone AT8) was “diminishes the accumulation of abnormally phosphorylated Tau protein in spinal cord”. The “accumulation of abnormal Tau hyperphosphorylation in vivo” value ([3]; decreasing expression of 3-OST-2 by morpholino) was “accumulation of abnormal Tau hyperphosphorylation was markedly decreased”.
In the case of fucoidan, the “competition with heparin for binding to human Tau protein (percentage of binding of test compound to hTau)” value (human Tau protein) is reported as “able to compete with heparin for the binding to human Tau protein”.
For heparin, the “induction of abnormal Tau phosphorylation in vitro” value [4] was “able to induce abnormal Tau phosphorylation in vitro”.
